From patent publication US20250205349A1, “ANTI-HUMAN TROP2 ANTIBODY-CAMPTOTHECIN DRUG CONJUGATE AND MEDICAL USE THEREOF” (SYSTIMMUNE, INC., priority 2021, published 2025)
Where two headings read alike, the source gives them in different places. Starred links: 1 amine or outer side, 2 acyl side, 3 side chain; linkers in the order of their positions; H or OH if unused. Non-standard residues stand in square brackets, D forms with d. Residues, ends and D or L forms follow the SMILES beside them. *: point of attachment. Exatecan = CC[C@@]1(O)C(=O)OCc2c1cc1n(c2=O)Cc2c-1nc1cc(F)c(C)c3c1c2[C@@H](N*)CC3; X1 = O=C(O)CNC[C@@H](C(=O)*)N1C(=O)C=CC1=O; X2 = C[C@H](OCN[*:1])C(=O)[*:2]

Assays:
[1] = tested on: human orthotopic pancreatic adenocarcinoma cell BXPC-3; assay: In vitro inhibitory effect of Compound 5A, MTS; format: cell-based
Description: (§1) The UV light of the biosafety cabinet was turned on 30 min in advance, and then the ventilation system was enabled for 3 min. The growth medium, the detection medium, D-PBS and trypsin were preheated in a 37° C. constant-temperature water bath, and then had surface disinfected with alcohol and then placed in the biosafety cabinet. The cells with a confluence rate of about 80% were placed in the biosafety cabinet, the old culture medium was removed, the cells were rinsed with D-PBS, and the D-PBS was then discarded. The cells were digested with trypsin for 2-3 min, then neutralized with the growth medium and centrifuged at 1200 rpm for 3 min, and the supernatant was removed. The cell solution was mixed with 4 mL of test medium, and 100 μL of cell solution was taken for counting (where 50 μL of cell solution was well mixed with 50 μL of Trypan Blue Stain and then counted). According to a pre-optimized cell plating density, the cells were plated in a 96-well plate at 80 ul/well. […] After 24 hours of plating, diluted antibodies were added with 20 uL per well and control was set. Only 20 μL of test medium was added to cells in column 11. Two duplicate wells were set at each concentration. The cells were then well mixed on the cell vortex shaker at 550 rpm for 3 min.
(§2) 240 μL of test medium was added to the subsequent columns 2 to 10. 60 μL of the well mixed test solution was taken from the first column and added to the second column, and the cell solution was mixed up and down with a pipette for 10 times, and then the pipette tip was discarded. The same operation was performed for other seven concentrations one by one.
(§3) After 4 days, the MTS reagent was taken out, thawed at room temperature in the dark, and vortex mixed thoroughly. In the biosafety cabinet, 20 μL of CellTiter One Solution Reagen MTS reagent was added per 100 μL cell culture volume along the side wall of each well, and the plate surface was gently tapped to well mix the MTS solution. The cells were incubated for 2 h in the dark in an incubator. After the reaction, the 96-well plate was taken out for testing the OD490 nm absorption on an elisa plate, and the test data were recorded, organized, analyzed and stored.

[2] = tested on: human breast cancer cell ZR-75-1; assay: In vitro inhibitory effect of Compound 5A, MTS; format: cell-based
Description: as §1, §2, §3

[3] = tested on: Human non-small cell lung adenocarcinoma cell H1975; assay: In vitro inhibitory effect of Compound 5A, MTS; format: cell-based
Description: as §1, §2, §3

[4] = tested on: human gastric cancer cell NCI-N87; assay: In vitro inhibitory effect of Compound 5A, MTS; format: cell-based
Description: as §1, §2, §3

[5] = tested on: human non-small cell lung cancer cell HCC827; assay: In vitro inhibitory effect of Compound 5A, MTS; format: cell-based
Description: as §1, §2, §3

[6] = tested on: human breast cancer cell SK-BR-3; assay: In vitro inhibitory effect of Compound 5A, MTS; format: cell-based
Description: as §1, §2, §3

[7] = tested on: human epidermal cancer cell A431; assay: In vitro inhibitory effect of Compound 5A, MTS; format: cell-based
Description: as §1, §2, §3

[8] = tested on: human leukemia cell JJN-3; assay: In vitro inhibitory effect of Compound 5A, MTS; format: cell-based
Description: as §1, §2, §3

[9] = tested on: human breast cancer cell MDA-MB-361; assay: In vitro inhibitory effect of Compound 5A, MTS; format: cell-based
Description: as §1, §2, §3

[10] = tested on: human multiple myeloma cell RPMI8226; assay: In vitro inhibitory effect of Compound 5A, MTS; format: cell-based
Description: as §1, §2, §3

[11] = tested on: human epidermal cancer cell A431 + human colon cancer cell SW620; assay: In vitro inhibitory effect of Compound 5A, MTS; format: cell-based
Description: as §1, §2, §3

[12] = tested on: human plasma cell leukemia cell H929; assay: In vitro inhibitory effect of Compound 5A, MTS; format: cell-based
Description: as §1, §2, §3

HCC827 = assay: In vitro efficacy of naked antibodies and Compound d3, d38, d39 and d44, MTS; format: cell-based; conditions: Homo sapiens, 1 uM starting concentration
Description: (§4) In a 96-well plate, cells were plated at an appropriate cell density. After 24 h, the drugs were added. After 24 h, the drugs were diluted with the test medium (1 uM starting concentration, 5-fold dilution, 9 concentrations, test medium was added in the tenth column as blank control). The diluted drugs were added to the corresponding cell wells and then shaken for 3 min with a microplate shaker (model: MX100-4A) at a shaking speed of 550 rpm/min. After shaking, the cells were incubated in a carbon dioxide incubator for […].
(§5) After 4 days, the MTS reagent was taken out, thawed at room temperature in the dark, and vortex mixed thoroughly. […] The cells were incubated for 2 h in the dark in an incubator. After the reaction, the 96-well plate was taken out for testing the OD490 nm absorption on an elisa plate, and the test data were recorded, organized, analyzed and stored.

SW620 + A431 = assay: as above; format: cell-based; conditions: Homo sapiens, 1 uM starting concentration
Description: as §4, §5

N87 = assay: as above; format: cell-based; conditions: Homo sapiens, 1 uM starting concentration
Description: as §4, §5

Fadu = assay: as above; format: cell-based; conditions: Homo sapiens, 1 uM starting concentration
Description: as §4, §5

SW620 = assay: as above; format: cell-based; conditions: Homo sapiens, SW-620, 1 uM starting concentration
Description: as §4, §5

[13] = Percentage of monomer of ADCs by SEC-HPLC; format: physicochemical
Description: • Chromatography column: Biocore SEC-300 5 μm, 4.6×300 mm; • Manufacturer: NanoChrom, Product code: B213-050030-04630S; • Mobile phase: 50 mM PB+300 mM NaCl+200 mM Arg+5% IPA, pH=6.5;
• Chromatography column: ACQUITY UPLC Protein SEC 4.6×150 mm […] • Manufacturer: waters Product code: 186005225 • Mobile phase: 50 mM PB+300 mM NaCl+200 mM Arg+5% IPA, pH=6.5

[14] = Description: The mixture of an ADC and IgG-depleted plasma were formulated with the final concentration of ADC being 0.6 mg/mL. The plasma mixture was incubated in a water bath box in a 37° C. incubator. The incubation time was set to 0 days, 3 days, and 7 days. At the same time, the unincubated plasma control was set. The incubated sample was purified and extracted and then tested for the DAR to reflect the stability of the ADC in plasma.
[15] = target: T1, recombinant TROP2-His*6 antigen (Homo sapiens, UniProt P09758); assay: Double-antigen sandwich ELISA, relative affinity to TROP2; format: binding; conditions: OD450 nm, EC50 compared
T1 construct: His*6
T1 sequence (P09758 27-323): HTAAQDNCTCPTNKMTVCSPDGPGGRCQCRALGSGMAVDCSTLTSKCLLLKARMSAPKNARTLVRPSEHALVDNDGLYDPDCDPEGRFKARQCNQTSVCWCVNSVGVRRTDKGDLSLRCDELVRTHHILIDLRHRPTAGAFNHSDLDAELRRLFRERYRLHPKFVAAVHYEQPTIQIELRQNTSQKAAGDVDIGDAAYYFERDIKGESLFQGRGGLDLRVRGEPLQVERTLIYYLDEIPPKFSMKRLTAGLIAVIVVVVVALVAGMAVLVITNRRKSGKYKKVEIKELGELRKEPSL
Description: The recombinant TROP2-His*6 antigen was coated on the plate and then blocked with 1% bovine serum albumin; hu4D3 and the corresponding ADC and TINA1 and the corresponding ADC were diluted respectively, and then serially diluted 3 folds at a starting concentration of 2000 ng/mL respectively, for a total of 11 concentrations. After the sample was incubated on the coated elisa plate for a period of time, the secondary antibody labeled by goat anti-human Fc-HRP was added for incubation. Finally, TMB color development was performed and terminated by sulfuric acid solution, and the absorption value at 450 nm was detected on an elisa plate. The results are plotted on concentration at OD450 nm.

[16] = tested on: human tumor cell line (BxPC-3); assay: In vitro drug efficacy of antibodies and ADCs, MTS cell viability; format: cell-based; conditions: BxPC-3, 5 days
Description: In the present invention, a human tumor cell line (BxPC-3) was used as an experimental model to evaluate the in vitro efficacy of ADCs. A certain number of tumor cells were inoculated into a 96-well plate, and gradient dilutions of the test antibody and the corresponding ADC were added to the cells, the cells were treated for 5 days, cell viability was detected by using MTS, and IC50 was calculated to evaluate the in vitro inhibitory effect of the test antibody and ADCs on the tumor cell line. The cells were treated for 5 days with the antibody drugs having initial concentration of 500 nM, diluted 7 folds, with a total of 8 concentration points. Finally, the cell survival was calculated as: survival rate=(experimental group-blank group)/(control group-blank group)×100%. Then, by using Graph Pad Prism, the curve was fitted and the half inhibitory concentration (IC50) was calculated.

[17] = in vivo; cited from earlier work
[18] = humans; cited from earlier work
[19] = mice; cited from earlier work

CC[C@@]1(O)C(=O)OCc2c1cc1n(c2=O)Cc2c-1nc1cc(F)c(C)c3c1c2[C@@H](NC(=O)[C@H](C)OCNC(=O)CNC(=O)[C@H](Cc1ccccc1)NC(=O)CNC(=O)CNC(=O)[C@H](CNCC(=O)O)N1C(=O)C=CC1=O)CC3 [Compound 5A] (X1-GGFG[X2]-Exatecan)
Efficacy % ([1]; BxPC-3): 64.4%
IC50 ([1]; Homo sapiens, 96 h, BxPC-3, 4 days, MTS): 320 nM
IC50 ([2]; Homo sapiens, 96 h, ZR-75-1, 4 days, MTS): 558 nM
Efficacy % ([2]; ZR-75-1): 54.79%
Efficacy % ([3]; H1975): 76.78%
IC50 ([3]; Homo sapiens, NCI-H1975, 96 h, H1975, 4 days, MTS): 970 nM
IC50 ([4]; Homo sapiens, 96 h, NCI-N87, 4 days, MTS): 1020 nM
Efficacy % ([4]; NCI-N87): 63.93%
Efficacy % ([5]; HCC827): 80.57%
IC50 ([5]; Homo sapiens, 96 h, HCC827, 4 days, MTS): 656 nM
IC50 ([6]; Homo sapiens, 96 h, SK-BR-3, 4 days, MTS): 732 nM
Efficacy % ([6]; SK-BR-3): 70.9%
Efficacy % ([7]; A431): 84.97%
IC50 ([7]; Homo sapiens, A-431, 96 h, A431, 4 days, MTS): 439 nM
IC50 ([8]; Homo sapiens, 96 h, JJN-3, 4 days, MTS): 36.1 nM
Efficacy % ([8]; JJN-3): 80.59%
IC50 ([9]; Homo sapiens, 96 h, MDA-MB-361, 4 days, MTS): 572 nM
Efficacy % ([9]; MDA-MB-361): 62.34%
IC50 ([10]; Homo sapiens, RPMI-8226, 96 h, RPMI8226, 4 days, MTS): 147 nM
Efficacy % ([10]; RPMI8226): 93.61%
Efficacy % ([11]; A431 + SW620): 68.26%
IC50 ([11]; Homo sapiens, 96 h, A431 + SW620, 4 days, MTS): 605 nM
Efficacy % ([12]; H929): 99.03%
IC50 ([12]; Homo sapiens, NCI-H929, 96 h, H929, 4 days, MTS): 23.9 nM

CC[C@@]1(O)C(=O)OCc2c1cc1n(c2=O)Cc2c-1nc1cc(F)c(C)c3c1c2[C@@H](NC(=O)[C@H](C)O)CC3 [d3]
IC50 (HCC827): 0.778 nM
IC50 (SW620 + A431): 2.81 nM
IC50 (N87): 1.61 nM
IC50 (Fadu): 0.531 nM
IC50 (SW620): 0.543 nM

CC[C@@]1(O)C(=O)OCc2c1cc1n(c2=O)Cc2c-1nc1cc(F)c(C)c3c1c2[C@H](NC(=O)[C@@H](O)C1CC1)CC3 [d39]
IC50 (HCC827): 0.092 nM
IC50 (SW620 + A431): 0.468 nM
IC50 (N87): 0.466 nM
IC50 (Fadu): 0.11 nM
IC50 (SW620): < 0.005 nM

CC[C@@]1(O)C(=O)OCc2c1cc1n(c2=O)Cc2c-1nc1cc(F)c(C)c3c1c2[C@H](NC(=O)C1(CO)CCC1)CC3 [d44]
IC50 (HCC827): 0.038 nM
IC50 (SW620 + A431): 0.182 nM
IC50 (N87): 0.197 nM
IC50 (Fadu): 0.029 nM
IC50 (SW620): 0.014 nM

DS1062a (DAR = 4)
Aggregate % [13]: 3.431%
Degradation % [13]: 0.108%
Monomer % [13]: 96.461%
DAR Incubated in plasma for 0 days ([14]; ADC 0.6 mg/mL in IgG-depleted plasma, 37° C., 0 days): 4.21
DAR Incubated in plasma for 3 days ([14]; ADC 0.6 mg/mL in IgG-depleted plasma, 37° C., 3 days): 3.75
DAR Incubated in plasma for 7 days ([14]; ADC 0.6 mg/mL in IgG-depleted plasma, 37° C., 7 days): 3.30
DAR Unincubated ([14]; unincubated control): 4.13

DS1062a [reference compound]
affinity for antigen TROP2 compared with the corresponding antibody [15]: maintains the same affinity
plasma stability (in words) ([14]; change in DAR during incubation in plasma): poor plasma stability
IC50 [16]: 308 nM

IMMU-132
mean residence time [17]: about 15.4 h
elimination half-life [18]: about 11 h
elimination half-life [19]: about 11 h
